From US11022604B2, “Dock derived compound against laminin receptor (37 LR) and uses thereof” (Purdue Research Foundation, priority 2017, dated 2021) come the findings set out here.

SMILES strings stand for the structures. pIC50: −log10 of the molar value.

The test system of this assay is LNCaP androgen dependent metastatic prostate cancer cells. The assay can be described thus: Cell viability screen (CCK-8), LNCaP cells. Type of assay: cell-based. The conditions noted are these: Homo sapiens, CCK-8, 96 hours, read-out: IC50, inhibition of cell viability. The procedure: FIGS. 2A-2H. Dose response curves. Does response curves for cell lines treated with 6, 10.5, 18.6, 32.4, 57.5 and 100 μM of compound (log) for 96 hours using % cell viability derived from CCK-8 absorbance readings at 450 nm (n=3, mean±SEM). A DMSO equivalent control (n=2±SEM) was also included for each cell line tested: Ea.hy.926 endothelial cells (Endo), LNCaP androgen dependent metastatic prostate cancer cells, TC2-Ras mouse prostate cancer cells, PC-3 androgen independent metastatic prostate cancer cells, and SH-SY5Y neruoblastoma cells. […]
Cell Viability Screen. […] Cell viability was measured by using the cell counting kit-8 (CCK-8, Dojindo). […] CCK-8 absorbance was measured at 450 nm using a GloMax Multimode Reader (Promega). Readings were performed the day after seeding to normalize for variations in cell seeding and after 96 hours of compound treatment. After each reading, CCK-8 media was removed and replaced with media containing compound as described previously. […] As described previously, an initial baseline CCK-8 reading was performed at 24 hours post seeding to correct for variations in seeding density. First, 450 nm values for each well were subtracted from media only readings to correct for baseline absorbance. Then, the 96 hour readings were normalized to their respective 24 hour readings to control for seeding variation. […]

Take `O=C(c1cc(F)cc2c1OCOC2)N1CCN(C2c3ccccc3-c3ccccc32)CC1` [Compound C3, [4-(9h-fluoren-9-yl)piperazino](6-fluoro-4h-1,3-benzodioxin-8-yl)methanone]: the pIC50 is 4.99.
